# Laboratory results as given in patent publication US5925631A, “Alkylated styrenes as prodrugs to COX-2 inhibitors” (Merck & Co., Inc., priority 1998, dated 1999).
# System: Rat Paw Edema
# Assay: Rat paw edema assay (carrageenan)
# Type: in vivo, rat (Male Sprague-Dawley)
# Settings: po, p.o. 1 h before subplantar carrageenan (500 μg per paw), paw volume at 3 h, read-out: Rat Paw Edema ED50, dose of prodrug required to reduce edema formation by 50% as compared to vehicle control
# Method: Male Sprague-Dawley rats (150-200 g) are fasted overnight and are given, p0, either vehicle (1% methocel or 5% Tween 80) or a test compound. One hr later, a line is drawn using a permanent marker at the level above the ankle in one hind paw to define the area of the paw to be monitored. The paw volume (V0) is measured using a plethysmometer (Ugo-Basile, Italy) based on the principle of water displacement. The animals are then injected subplantarly with 50 μl of 1% carrageenan solution in saline (FMC Corp, Me.) into the paw using an insulin syringe with a 25-gauge needle (i.e. 500 μg carrageenan per paw). Three hr later, the paw volume (V3) is measured and the increases in paw volume (V3 - VO) are calculated. The animals are sacrificed by CO2 asphyxiation and the absence or presence of stomach lesions scored. Data is compared with the vehicle-control values and percent inhibition calculated. All treatment groups are coded to eliminate observer bias.
# Compounds of the present invention are prodrugs of inhibitors of COX-2 and are thereby useful in the treatment of COX-2 mediated diseases as enumerated above. The extent of conversion of these compounds to the active COX-2 inhibitors may be seen in the representative results shown in Table III along with their antiinflammatory activity. The plasma levels indicated are the maximum rat plasma concentrations of the active COX-2 inhibitor observed when the rat was treated with a 20 mg/kg oral dose of the indicated prodrug. The ED50 values in the rat paw edema assay represent the dose of prodrug required to reduce edema formation by 50% as compared to the vehicle control.
row,Structure (SMILES),ED50 [mg/kg]
1,"CC(C)(O)/C(=C(\CO)c1cccc(F)c1)c1ccc(S(C)(=O)=O)cc1 [Example 1, 2-(3-Fluorophenyl)-4-methyl-3-(4-(methylsulfonyl)-phenyl)-2-(Z)-penten-1,4-diol]",10
2,"COC(C)(C)/C(=C(\C(=O)N(C)C)c1cccc(F)c1)c1ccc(S(C)(=O)=O)cc1 [Example 4, N,N-Dimethyl-2-(3-fluorophenyl)-4-methoxy-4-methyl-3-(4-(methylsulfonyl)phenyl)-2-(Z)-pentenamide]",1.6
3,"COC(=O)/C(=C(/c1ccc(S(C)(=O)=O)cc1)C(C)(C)OC)c1cccc(F)c1 [Example 6, Methyl 2-(3-fluorophenyl)-4-methoxy-4-methyl-3-(4-(methylsulfonyl)phenyl)-2-(Z)-pentenoate]",2.1
